Results: patent US5631226A, “Treatment to reduce edema” (The Regents of the University of California, priority 1995, dated 1997)
No end group written: not given here.

Tests used:
[1] = tested on: blood pressure; conditions: prior art report; cited from earlier work
[2] = tested on: ACTH secretion; conditions: prior art report; cited from earlier work
[3] = tested on: vascular permeability produced by cold injury in brain; experiment: Cold (freeze) injury to brain, vascular leakage by Monastral blue staining; assay type: in vivo, rat
Source text: An in vivo model of injury to study brain edema has been developed as a reproducible edema model, which has the features of immediate cortical damage followed by the subsequent development of brain edema. This model is described by Chan et al., Brain Research, 277, pp. 329-337 (1983). The model uses rats which are anesthetized. A 2.5 cm incision is made over the sagittal suture and the bone of the right hemisphere exposed. A 60 mm^2 plate attached to a brass cup filled with dry ice-acetone mixture, with a temperature of -50° C., is applied to the rat skull for one minute. The animals are sacrificed at various intervals after the onset of cold-injury. A dye is administered intravenously before the freezing. Cortical slices are then obtained of the brain.
Sixteen male rats were randomly divided into eight pairs and one rat in each pair received either saline or CRF (subcutaneously twice at 30 μg/kg, 30 min and 10 min before cold injury). The animals were anesthetized with sodium pentobarbital, 60 mg/kg intraperitoneally, and injected with Monastral blue, 60 mg/kg intravenously. A cold probe was applied onto the skull for four minutes and the brains taken out one hour after cold injury. The staining of brain tissues with Monastral blue, a colloidal pigment that gets trapped between the albuminal surface of the endothelial cell and the basement membrane, was proportional to the degree of vascular leakage. The results from the first pair are shown as FIG. 1.
The size of the lesion, measured as area in mm^2, and the degree of staining intensity, were quantified using an image-analysis software program called JAVA (Jandel Corporation, San Rafael, Calif.). The stain intensity, given in arbitrary units, was internally calibrated using Monastral blue solutions (1-30 mg/ml) placed on white filter paper. Values are mean ±S.E.M.

[4] = tested on: brain edema after freeze injury to cerebral cortex; experiment: Freeze injury of cerebral cortex, water and sodium content as index of brain edema; assay type: in vivo, rat; conditions: CRF 30 μg/kg s.c. 2x, tissues 3 hr after injury, ±S.E.M., N=5
Experimental: In a second set of experiments, the brain surface, namely the cerebral cortex, was injured by freezing and the water and sodium content were measured in the cerebral cortex and in the basal ganglia, a part of the brain away from the freeze zone. The water and sodium content of the brain tissue served as an index of brain edema. After freeze injury, the water and sodium content of the cerebral cortex were evaluated relative to non-frozen tissues. CRF administered in two separate doses of 30 μg/kg subcutaneously, one dose 15 minutes before the injury and the second dose 90 minutes after the first dose, inhibited the two indices of brain edema.
Male SpragueDawley rats, 300-325 g, anesthetized with
ketamineacepromazine, were injected saline or CRF (30 μg/kg s.c. 2x)
and injury to cerebral cortex was produced by applying a cold probe to th
skull for 1 min. Brain tissues were obtained 3 hr later and analyzed for
water and sodium content.

[5] = tested on: vascular leakage after musculature injury (celiotomy); experiment: Vascular leakage after celiotomy (4 cm midline incision through abdominal muscle wall); assay type: in vivo, rat; conditions: for Lesions Size: tissues 0.5 hour after surgery
Experimental: Experiments were conducted on male Sprague-Dawley rats 243±15 gm (S. D., Simonsen Labs., Gilroy, Calif.) anesthetized with sodium pentobarbital, 60 mg/kg i.p. Monastral blue, 60 mg/kg i.v., was injected 0.2 ml/100 g, 3 minutes before a 4 cm midline incision through the abdominal muscle wall (celiotomy). Saline or CRF was administered to randomized pairs with N=8 rats per group. The size of the lesion, measured as area in mm^2, and its light intensity, were quantified using the JAVA image-analysis software program. The light intensity, given in arbitrary units, was internally calibrated using Monastral blue solutions (1-30 mg/ml) placed on white filter paper. Values are mean±S.E.M. FIG. 2 illustrates the respective amount of vascular permeability for one pair of rats (control and treated). Tables III and IV set out data from these experiments.
CRF: inhected at various doses subcutaneously 30 minutes before a 4 cm
middle incision, tissues taken 0.5 hour after surgery.
CRF: 30 μg/kg s.c. injected 2 hour before a 4 cm midline incision,
tissues taken 0.5 hour after surgery

[6] = tested on: vascular leakage produced by PAF-acether; experiment: Vascular leakage produced by PAF-acether injected subcutaneously into the abdomen; assay type: in vivo, rat; conditions: CRF 30 μg/kg s.c. 30 minutes before PAF-acether
Experimental: CRF: 30 μg/kg s.c. injected 30 minutes before subcutaneous injection o
PAFacether (1 μg/0.1 ml/rat) into the abdomen; muscle removed 0.5 hour

[7] = tested on: Pseudomonas; experiment: Neutropenic rat model of sepsis (Pseudomonas infection), survival; assay type: in vivo; conditions: CRF 100 μg/kg i.v. twice a day for four days after onset of fever; day 11; 9/15; controls 100% mortality at 8 days
Source text: The neutropenic rat model of sepsis, designed to mimic the systemic inflammatory response syndrome in humans, is described by Collins et al. from The Journal of Infectious Diseases, 159:6 (June 1989) and The Journal of Clinical Investigation, 88:885 (September 1991). […] The animals die from overwhelming infection within 7 to 9 days of infection and examination of the tissues with histological and pathological techniques reveal the characteristic organic manifestations of the systemic inflammatory response syndrome, namely, organ edema and tissue necrosis.
In a typical experiment, 10 rats serving as controls received saline and 15 rats received CRF at a dose of 100 μg/kg intravenously, given twice a day for four days after the onset of fever. At the end of 8 days, all of the animals in the control group were dead (100% mortality). By contrast, 60% (9/15) of the CRF group were still alive at day 11 when the experiment was concluded. The difference between the saline and CRF treated groups were statistically significant (P<0.002).

[8] = tested on: edema-producing properties of inflammatory mediators in rat pawskin; conditions: mediators injected into the rat pawskin; previously shown; cited from earlier work
[9] = CRF 15 μg/kg s.c. 30 minutes before incision
[10] = CRF 30 μg/kg s.c. 30 minutes before incision
[11] = CRF 60 μg/kg s.c. 30 minutes before incision

| Compound | effect on blood pressure [1] | effect on ACTH secretion [2] | lesion size of CRF-treated group relative to saline-treated group ([3]; CRF 30 μg/kg s.c. twice before cold injury) [%] | Intensity (Monastral blue stain intensity) ([3]; CRF 30 μg/kg s.c. twice, 30 min and 10 min before cold injury, brains taken 1 hour after injury, mean ± S.E.M.) [arbitrary units] | blinded observer correctly assigns brains to saline or CRF group (more vs less damaged) ([3]; eight pairs of rats) | SODIUM mEq/kg dry ([4]; basal ganglia (non-injured)) [mEq/kg dry] | WATER CONTENT % ([4]; basal ganglia (non-injured)) [%] | SODIUM mEq/kg dry ([4]; cerebral cortex (injured)) [mEq/kg dry] | WATER CONTENT % ([4]; cerebral cortex (injured)) [%] | lesion size relative to saline-treated group [5, 9] [%] | Lesions Size [5, 9] | lesion size relative to saline-treated group [5, 10] [%] | Lesions Size [5, 10] | lesion size relative to saline-treated group ([5]; CRF 30 μg/kg s.c. 2 hour before incision) [%] | lesion size relative to saline-treated group [5, 11] [%] | Lesions Size [5, 11] | muscle lesion size relative to saline-treated control group [6] [%] | animals still alive (survival) [7] [%] | effect on edema-producing properties of inflammatory mediators [8] |
| --- | --- | --- | --- | --- | --- | --- | --- | --- | --- | --- | --- | --- | --- | --- | --- | --- | --- | --- | --- |
| CC[C@H](C)[C@H](NC(=O)[C@@H](NC(=O)[C@H](CC(=O)O)NC(=O)[C@H](CC(C)C)NC(=O)[C@H](CC(C)C)NC(=O)[C@H](CC(C)C)NC(=O)[C@H](CCCNC(=N)N)NC(=O)[C@H](CC(N)=O)NC(=O)[C@H](CC(N)=O)NC(=O)[C@H](C)NC(=O)[C@H](C)NC(=O)[C@H](CCC(N)=O)NC(=O)[C@H](CCC(N)=O)NC(=O)[C@H](CCCCN)NC(=O)[C@H](CCC(=O)O)NC(=O)[C@H](CCCCN)NC(=O)[C@H](CCC(=O)O)NC(=O)[C@H](CCC(N)=O)NC(=O)[C@H](CCCCN)NC(=O)[C@H](CCC(=O)O)NC(=O)[C@@H](NC(=O)[C@H](CCC(=O)O)NC(=O)[C@@H](NC(=O)[C@H](CCSC)NC(=O)[C@H](CCCCN)NC(=O)[C@H](CCCNC(=N)N)NC(=O)[C@H](CC(C)C)NC(=O)[C@H](CC(C)C)NC(=O)[C@H](CCC(=O)O)NC(=O)[C@H](CC(C)C)NC(=O)[C@H](CO)NC(=O)[C@H](CC(C)C)NC(=O)[C@H](CC(=O)O)NC(=O)[C@@H](NC(=O)[C@H](CO)NC(=O)[C@@H](NC(=O)[C@@H]1CCCN1C(=O)[C@@H]1CCCN1C(=O)CNC(=O)[C@@H]1CCC(=O)N1)[C@@H](C)CC)[C@@H](C)CC)[C@@H](C)CC)[C@@H](C)CC)[C@@H](C)O)C(N)=O [Sauvagine] | lowering blood pressure | stimulating the secretion of ACTH and β-endorphin |  |  |  |  |  |  |  |  |  |  |  |  |  |  |  |  |  |
| CRF: 41 amino acid neuropeptide present in brain and peripheral nerve endings; stimulates ACTH release from pituitary cells (SEEPPISLDLTFHLLREVLEMARAEQLAQQAHSNRKLMEII; not fully specified; ends and bridges not checked; UniProt P06850 154-194, looked up) |  |  | 44 | 2.0 ± 0.05 | 8 out of 8 | 215 ± 9 | 76 ± 1 | 271 ± 8 | 77 ± 4 | 63 | 1031 ± 44 | 42 | 676 ± 47 | 59 | 29 | 468 ± 19 | 44 | 60 | antagonize the edema-producing properties |
